Source: the supplement of paper PMC4862054
One block for each compound: values may come before it.

Legend:
Conditions in all cases: 72 h
[1] = tested on: CAL-85-1
In short: (§1)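 Breast cancer cell lines in 20 µl suspension were added to 384-well plates already holding compound at 5 concentrations, spaced in 10-fold steps across a compound-specific 10,000-fold range, and incubated for 72 h. CellTox Green fluorescence (485/520 nm) was read first to measure cell death, followed by CellTiter-Glo luminescence for viability after 10 min at room temperature. Each plate was normalised to 0.1 % DMSO and a positive kill control. EC50 values came from dose-response curve fits and were censored at the top concentration.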

[2] = tested on: MDA-MB-468
In short: as §1

[3] = tested on: CAL-51
In short: as §1

[4] = tested on: BT-474
In short: as §1

[5] = tested on: CAL-120
In short: as §1

[6] = tested on: HCC1937
In short: as §1

[7] = tested on: MDA-MB-436
In short: as §1

[8] = tested on: MDA-MB-231
In short: as §1

[9] = tested on: MCF-10A
In short: as §1

[10] = tested on: HCC1143
In short: as §1

[11] = tested on: BT-549
In short: as §1

[12] = tested on: MDA-MB-453
In short: as §1

[13] = tested on: Hs578T
In short: as §1

[14] = tested on: CAL-148
In short: as §1

[15] = tested on: HCC1599
In short: as §1

[16] = tested on: MFM-223
In short: as §1

[17] = tested on: DU-4475
In short: as §1

[18] = tested on: SK-BR-3
In short: as §1

[19] = tested on: HDQ-P1
In short: as §1

[20] = tested on: BT-474; remark: listed apart in the source
In short: (§2)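 To measure viability, fluorescence at 560/590 nm was read after 2.5 µl CellTiter-Blue had been added for 2 h at 37 °C. Cells from breast cancer lines had been seeded in 20 µl suspension onto 384-well plates pre-loaded with compound dissolved in 5 µl medium and kept for 72 h. EC50 comes from a fitted percent-inhibition dose-response curve censored at the highest concentration, after per-plate normalisation to vehicle and a positive kill control, Z'-factor checks, and removal of rows with zero drug sensitivity score.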

[21] = tested on: CAL-85-1; remark: listed apart in the source
Procedure: (§3)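 Drug sensitivity and resistance testing (DSRT) of breast cancer cell lines in 384-well plates, 5 concentrations in 10-fold dilutions over a compound-specific 10,000-fold range. After 72 h, cytotoxicity was read by CellTox Green fluorescence and viability by CellTiter-Glo luminescence (multiplexed), normalised to DMSO and benzethonium chloride controls. EC50 is the inflection point of the fitted dose-response curve (bottom asymptote free, so it can be relative for partial curves) and is censored at the highest tested concentration. Rows with DSS 0 (no meaningful response) were excluded.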

[22] = tested on: BT-474; remark: listed apart in the source
Procedure: as §3

[23] = tested on: MCF-10A; remark: listed apart in the source
Procedure: as §3

[24] = tested on: Hs578T; remark: listed apart in the source
Procedure: as §3

[25] = tested on: CAL-148; remark: listed apart in the source
Procedure: as §3

[26] = tested on: DU-4475; remark: listed apart in the source
Procedure: as §3

[27] = tested on: HDQ-P1; remark: listed apart in the source
Procedure: as §3

[28] = tested on: CAL-85-1; remark: listed apart in the source
In short: as §2

[29] = tested on: CAL-51; remark: listed apart in the source
In short: as §2

[30] = tested on: MDA-MB-453; remark: listed apart in the source
In short: as §2

[31] = tested on: CAL-148; remark: listed apart in the source
In short: as §2

[32] = tested on: DU-4475; remark: listed apart in the source
In short: as §2

[33] = tested on: HDQ-P1; remark: listed apart in the source
In short: as §2

[34] = tested on: MDA-MB-468; remark: listed apart in the source
Procedure: as §3

[35] = tested on: HCC1937; remark: listed apart in the source
Procedure: as §3

[36] = tested on: MFM-223; remark: listed apart in the source
Procedure: as §3

[37] = tested on: CAL-120; remark: listed apart in the source
Procedure: as §3

[38] = tested on: MDA-MB-436; remark: listed apart in the source
Procedure: as §3

[39] = tested on: HCC1143; remark: listed apart in the source
Procedure: as §3

[40] = tested on: BT-549; remark: listed apart in the source
Procedure: as §3

[41] = tested on: MDA-MB-453; remark: listed apart in the source
Procedure: as §3

EC50, CellTiter-Glo [2]: 370 nM
EC50, CellTiter-Glo [4]: 421 nM
EC50, CellTiter-Glo [6]: 157 nM
EC50, CellTiter-Glo [7]: 141 nM
EC50, CellTiter-Glo [8]: 483 nM
EC50, CellTiter-Glo [10]: 416 nM
EC50, CellTiter-Glo [11]: 92.6 nM
EC50, CellTiter-Glo [12]: 153 nM
EC50, CellTiter-Glo [15]: 190 nM
EC50, CellTiter-Glo [18]: 13.7 nM
EC50, CellTiter-Blue viability [20]: 93.7 nM
EC50, CellTiter-Blue viability [30]: 64 nM
SMILES: COc1c(C)cnc(Cn2cnc3c(Cl)nc(N)nc32)c1C [BIIB021]
EC50, CellTiter-Glo [1]: 308 nM
EC50, CellTiter-Glo [3]: 227 nM
EC50, CellTiter-Glo [5]: 247 nM
EC50, CellTiter-Glo [9]: 354 nM
EC50, CellTiter-Glo [13]: 756 nM
EC50, CellTiter-Glo [14]: 199 nM
EC50, CellTiter-Glo [16]: 192 nM
EC50, CellTiter-Glo [17]: 329 nM
EC50, CellTiter-Glo [19]: 242 nM
EC50, CellTox Green [21]: 3950 nM
EC50, CellTox Green [22]: 1790 nM
EC50, CellTox Green [23]: 189 nM
EC50, CellTox Green [24]: 321 nM
EC50, CellTox Green [25]: 84.5 nM
EC50, CellTox Green [26]: 293 nM
EC50, CellTox Green [27]: 1960 nM
EC50, CellTiter-Blue viability [28]: 490 nM
EC50, CellTiter-Blue viability [29]: 341 nM
EC50, CellTiter-Blue viability [31]: 133 nM
EC50, CellTiter-Blue viability [32]: 143 nM
EC50, CellTiter-Blue viability [33]: 241 nM

EC50, CellTiter-Glo [2]: 43 nM
EC50, CellTiter-Glo [4]: 19.8 nM
EC50, CellTiter-Glo [6]: 130 nM
EC50, CellTiter-Glo [7]: 23.8 nM
EC50, CellTiter-Glo [8]: 56.6 nM
EC50, CellTiter-Glo [10]: 32.5 nM
EC50, CellTiter-Glo [11]: 21.8 nM
EC50, CellTiter-Glo [12]: 14.8 nM
EC50, CellTiter-Glo [15]: 13.9 nM
EC50, CellTiter-Glo [18]: 6.82 nM
EC50, CellTiter-Blue viability [20]: 13.5 nM
EC50, CellTiter-Blue viability [30]: 5.38 nM
SMILES: COc1ncc(-c2ccc3nccc(-c4ccnnc4)c3c2)cc1NS(=O)(=O)c1ccc(F)cc1F
EC50, CellTiter-Glo [1]: 15.8 nM
EC50, CellTiter-Glo [3]: 34.7 nM
EC50, CellTiter-Glo [5]: 27.6 nM
EC50, CellTiter-Glo [9]: 12.9 nM
EC50, CellTiter-Glo [13]: 37.6 nM
EC50, CellTiter-Glo [14]: 76.8 nM
EC50, CellTiter-Glo [16]: 16.2 nM
EC50, CellTiter-Glo [17]: 228 nM
EC50, CellTiter-Glo [19]: 14.2 nM
EC50, CellTox Green [34]: 160 nM
EC50, CellTox Green [22]: 134 nM
EC50, CellTox Green [35]: 299 nM
EC50, CellTox Green [23]: 349 nM
EC50, CellTox Green [24]: 511 nM
EC50, CellTox Green [25]: 74.7 nM
EC50, CellTox Green [36]: 22.4 nM
EC50, CellTiter-Blue viability [28]: 27.2 nM
EC50, CellTiter-Blue viability [29]: 12.6 nM
EC50, CellTiter-Blue viability [31]: 27.6 nM
EC50, CellTiter-Blue viability [32]: 113 nM
EC50, CellTiter-Blue viability [33]: 6.71 nM

EC50, CellTiter-Glo [2]: 2.93 nM
EC50, CellTiter-Glo [4]: 8.94 nM
EC50, CellTiter-Glo [6]: 71.2 nM
EC50, CellTiter-Glo [7]: 6.1 nM
EC50, CellTiter-Glo [8]: 13.9 nM
EC50, CellTiter-Glo [10]: 19 nM
EC50, CellTiter-Glo [11]: 3.96 nM
EC50, CellTiter-Glo [12]: 22.9 nM
EC50, CellTiter-Glo [15]: 97 nM
EC50, CellTiter-Glo [18]: 0.28 nM
EC50, CellTiter-Blue viability [20]: 7.19 nM
EC50, CellTiter-Blue viability [30]: 6.36 nM
SMILES: CC(C)C[C@H](NC(=O)[C@H](Cc1ccccc1)NC(=O)c1cnccn1)B(O)O [Bortezomib]
EC50, CellTiter-Glo [1]: 4.47 nM
EC50, CellTiter-Glo [3]: 30 nM
EC50, CellTiter-Glo [5]: 16.1 nM
EC50, CellTiter-Glo [9]: 134 nM
EC50, CellTiter-Glo [13]: 13.1 nM
EC50, CellTiter-Glo [14]: 60.1 nM
EC50, CellTiter-Glo [16]: 5.1 nM
EC50, CellTiter-Glo [17]: 27.1 nM
EC50, CellTiter-Glo [19]: 12.4 nM
EC50, CellTox Green [21]: 5.02 nM
EC50, CellTox Green [34]: 1.94 nM
EC50, CellTox Green [22]: 32.8 nM
EC50, CellTox Green [37]: 43.8 nM
EC50, CellTox Green [35]: 11.3 nM
EC50, CellTox Green [38]: 32.4 nM
EC50, CellTox Green [23]: 210 nM
EC50, CellTox Green [39]: 165 nM
EC50, CellTox Green [40]: 49.3 nM
EC50, CellTox Green [41]: 156 nM
EC50, CellTox Green [24]: 11.7 nM
EC50, CellTox Green [25]: 17.2 nM
EC50, CellTox Green [36]: 13 nM
EC50, CellTox Green [26]: 229 nM
EC50, CellTox Green [27]: 15 nM
EC50, CellTiter-Blue viability [28]: 7.76 nM
EC50, CellTiter-Blue viability [29]: 38.9 nM
EC50, CellTiter-Blue viability [31]: 24.7 nM
EC50, CellTiter-Blue viability [32]: 18.6 nM
EC50, CellTiter-Blue viability [33]: 5.29 nM
